According to ChEMBL document CHEMBL5505964, “HDAC/NAMPT dual inhibitors overcome initial drug-resistance in p53-null leukemia cells” (Eur J Med Chem, 2024):
One block for each compound: values may come before it.

Columns and labels:
MV4-11 = test: cells; type: functional, cell-based; conditions: Homo sapiens; for IC50: MV4-11, 48 h; for GI50: MV4-11, time 48 hrs
HL-60 [1] = test: Antiproliferative activity against p53-null human HL-60 cells assessed as inhibition of cell growth incubated for 48 hrs by resazurin dye based fluorescence analysis; type: functional
Kasumi 1 = test: Antiproliferative activity against human Kasumi 1 cells harboring wild type p53 assessed as induction of cell death incubated for 48 hrs by resazurin dye based fluorescence analysis; type: functional; conditions: read-out: LD50 (the source's name)
[2] = Antiproliferative activity against p53-null human PL-21 cells assessed as induction of cell death incubated for 48 hrs by resazurin dye based fluorescence analysis; type: functional; conditions: read-out: LD50 (the source's name)
[3] = Antiproliferative activity against p53-null human MONO-MAC-1 cells assessed as induction of cell death incubated for 48 hrs by resazurin dye based fluorescence analysis; type: functional; conditions: read-out: LD50 (the source's name)
NB-4 = test: Antiproliferative activity against p53-null human NB4 cells assessed as induction of cell death incubated for 48 hrs by resazurin dye based fluorescence analysis; type: functional; conditions: read-out: LD50 (the source's name)
Histone deacetylase 1 = Histone deacetylase 1 (Homo sapiens, UniProt Q13547); test: (§1) Inhibition of C-terminal 6XHis-tagged/FLAG-tagged full length human recombinant HDAC1 (1 to 482 residues) expressed in baculovirus-infected Sf9 cells using Boc-Lys-(acetyl)-AMC as substrate preincubated with enzyme for 1 hr followed by substrate addition and measured after 2 hrs by fluorescence analysis
Histone deacetylase 2 = Histone deacetylase 2 (Homo sapiens, UniProt Q92769); test: biochemical; type: cell-based, Sf9
[4] = target: Histone deacetylase 3/Nuclear receptor corepressor 2 (HDAC3/NCoR2) (Homo sapiens, UniProt O15379); test: as §1, with “His-tagged” for “6XHis-tagged/FLAG-tagged full length”, “HDAC3” for “recombinant HDAC1”, “428 residues)/N-terminal GST tagged human NCOR2 (395 to 489” for “482”
[5] = target: T1, Nicotinamide phosphoribosyltransferase (Homo sapiens, UniProt P43490); test: Inhibition of N-terminal GST-tagged human recombinant NAMPT (2 to 491 residues) expressed in Escherichia coli expression system incubated for 30 mins by fluorescence based analysis
HL-60 [6] = test: Antiproliferative activity against p53-null human HL-60 cells assessed as induction of cell death incubated for 48 hrs in presence of N-(4-(1-benzoylpiperidin-4-yl)butyl)-3-(pyridin-3-yl)acrylamide by resazurin dye based fluorescence analysis; type: functional; conditions: read-out: LD50 (the source's name)
HL-60 [7] = test: Antiproliferative activity against p53-null human HL-60 cells assessed as induction of cell death incubated for 48 hrs in presence of methyl-4-((1H-pyrrolo[3,2-c]pyridine-2-carboxamido)methyl)benzoate by resazurin dye based fluorescence analysis; type: functional; conditions: read-out: LD50 (the source's name)
[8] = target: T1, Nicotinamide phosphoribosyltransferase; test: Inhibition of NAMPT (unknown origin)

Chain of Histone deacetylase 3/Nuclear receptor corepressor 2 (HDAC3/NCoR2) (O15379 whole entry, the tested form may be a part): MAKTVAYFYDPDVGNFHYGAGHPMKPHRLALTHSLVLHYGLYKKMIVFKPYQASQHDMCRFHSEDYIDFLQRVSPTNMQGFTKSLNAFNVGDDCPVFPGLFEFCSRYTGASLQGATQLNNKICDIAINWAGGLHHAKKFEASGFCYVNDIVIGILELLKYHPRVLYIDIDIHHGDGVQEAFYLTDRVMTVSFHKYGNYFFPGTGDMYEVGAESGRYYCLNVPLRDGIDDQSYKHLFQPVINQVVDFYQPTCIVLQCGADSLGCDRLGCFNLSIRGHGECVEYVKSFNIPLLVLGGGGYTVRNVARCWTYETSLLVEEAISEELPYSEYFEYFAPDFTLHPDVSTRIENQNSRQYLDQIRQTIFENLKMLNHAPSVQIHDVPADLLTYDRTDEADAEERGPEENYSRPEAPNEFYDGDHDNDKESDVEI
Chain of Histone deacetylase 3/Nuclear receptor corepressor 2 (HDAC3/NCoR2) (Q9Y618 whole entry, further chain, the tested form may be a part): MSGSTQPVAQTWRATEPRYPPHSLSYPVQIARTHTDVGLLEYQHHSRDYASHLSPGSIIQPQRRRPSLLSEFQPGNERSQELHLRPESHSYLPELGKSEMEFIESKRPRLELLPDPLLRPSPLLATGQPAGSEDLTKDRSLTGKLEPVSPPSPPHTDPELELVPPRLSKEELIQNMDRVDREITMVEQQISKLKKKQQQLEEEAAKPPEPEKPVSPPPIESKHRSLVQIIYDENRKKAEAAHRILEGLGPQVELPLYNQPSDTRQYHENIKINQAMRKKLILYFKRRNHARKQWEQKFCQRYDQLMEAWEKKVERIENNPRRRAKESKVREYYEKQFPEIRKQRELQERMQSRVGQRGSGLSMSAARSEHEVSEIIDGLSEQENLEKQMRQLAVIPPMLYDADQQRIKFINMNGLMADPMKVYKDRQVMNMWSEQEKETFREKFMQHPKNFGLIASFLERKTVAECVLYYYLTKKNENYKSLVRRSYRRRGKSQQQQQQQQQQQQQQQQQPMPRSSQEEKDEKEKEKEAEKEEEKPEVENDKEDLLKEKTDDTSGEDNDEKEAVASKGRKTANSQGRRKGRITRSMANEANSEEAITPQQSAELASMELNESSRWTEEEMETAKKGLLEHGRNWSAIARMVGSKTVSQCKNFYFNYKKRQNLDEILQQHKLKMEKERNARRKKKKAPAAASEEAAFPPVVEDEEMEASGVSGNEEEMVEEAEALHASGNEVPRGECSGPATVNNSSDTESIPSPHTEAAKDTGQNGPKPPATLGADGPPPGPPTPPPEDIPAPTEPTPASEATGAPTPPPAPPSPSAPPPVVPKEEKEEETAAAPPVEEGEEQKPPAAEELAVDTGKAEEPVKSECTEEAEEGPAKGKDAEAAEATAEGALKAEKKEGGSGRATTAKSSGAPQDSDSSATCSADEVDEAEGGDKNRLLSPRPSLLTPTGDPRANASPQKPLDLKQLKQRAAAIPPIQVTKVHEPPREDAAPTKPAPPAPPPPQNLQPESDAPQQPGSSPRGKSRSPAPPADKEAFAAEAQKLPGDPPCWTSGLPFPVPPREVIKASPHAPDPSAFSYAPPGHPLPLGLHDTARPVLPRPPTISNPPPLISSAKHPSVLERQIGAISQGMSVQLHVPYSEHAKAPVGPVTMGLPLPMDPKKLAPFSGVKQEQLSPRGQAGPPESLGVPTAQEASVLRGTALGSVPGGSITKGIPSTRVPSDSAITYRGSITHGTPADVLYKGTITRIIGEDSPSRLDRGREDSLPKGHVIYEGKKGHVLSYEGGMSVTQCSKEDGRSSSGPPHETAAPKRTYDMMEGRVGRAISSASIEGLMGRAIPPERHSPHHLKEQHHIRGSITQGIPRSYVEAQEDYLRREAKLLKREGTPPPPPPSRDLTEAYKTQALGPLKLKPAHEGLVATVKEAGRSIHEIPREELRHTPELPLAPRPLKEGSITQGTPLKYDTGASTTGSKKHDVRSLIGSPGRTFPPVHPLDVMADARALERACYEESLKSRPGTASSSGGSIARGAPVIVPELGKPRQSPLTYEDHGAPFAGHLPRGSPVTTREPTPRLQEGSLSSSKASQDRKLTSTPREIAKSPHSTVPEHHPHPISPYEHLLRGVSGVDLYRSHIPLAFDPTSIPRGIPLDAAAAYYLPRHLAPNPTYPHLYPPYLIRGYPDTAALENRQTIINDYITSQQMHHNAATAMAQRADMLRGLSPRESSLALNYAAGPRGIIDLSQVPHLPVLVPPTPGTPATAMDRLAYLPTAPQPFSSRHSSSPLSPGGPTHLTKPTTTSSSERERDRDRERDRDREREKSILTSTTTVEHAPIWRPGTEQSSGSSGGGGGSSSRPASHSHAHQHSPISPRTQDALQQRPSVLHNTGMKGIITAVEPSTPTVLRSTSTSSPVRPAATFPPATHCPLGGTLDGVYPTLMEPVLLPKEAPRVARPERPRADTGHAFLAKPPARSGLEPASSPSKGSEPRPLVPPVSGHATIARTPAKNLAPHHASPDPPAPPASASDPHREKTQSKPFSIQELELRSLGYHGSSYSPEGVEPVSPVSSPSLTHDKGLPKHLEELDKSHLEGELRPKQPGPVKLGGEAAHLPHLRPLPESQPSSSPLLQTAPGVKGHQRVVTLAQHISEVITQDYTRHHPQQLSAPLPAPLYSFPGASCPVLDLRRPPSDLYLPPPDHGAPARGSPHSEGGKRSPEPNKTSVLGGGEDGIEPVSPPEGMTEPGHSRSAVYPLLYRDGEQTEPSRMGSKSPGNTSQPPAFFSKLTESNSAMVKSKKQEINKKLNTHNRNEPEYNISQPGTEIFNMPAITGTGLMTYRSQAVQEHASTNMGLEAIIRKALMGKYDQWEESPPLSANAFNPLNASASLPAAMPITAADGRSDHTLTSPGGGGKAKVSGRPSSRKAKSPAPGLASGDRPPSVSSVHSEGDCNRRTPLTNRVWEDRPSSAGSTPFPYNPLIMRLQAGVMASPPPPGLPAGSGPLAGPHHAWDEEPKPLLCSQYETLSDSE
T1 sequence (P43490 whole entry, the tested form may be a part): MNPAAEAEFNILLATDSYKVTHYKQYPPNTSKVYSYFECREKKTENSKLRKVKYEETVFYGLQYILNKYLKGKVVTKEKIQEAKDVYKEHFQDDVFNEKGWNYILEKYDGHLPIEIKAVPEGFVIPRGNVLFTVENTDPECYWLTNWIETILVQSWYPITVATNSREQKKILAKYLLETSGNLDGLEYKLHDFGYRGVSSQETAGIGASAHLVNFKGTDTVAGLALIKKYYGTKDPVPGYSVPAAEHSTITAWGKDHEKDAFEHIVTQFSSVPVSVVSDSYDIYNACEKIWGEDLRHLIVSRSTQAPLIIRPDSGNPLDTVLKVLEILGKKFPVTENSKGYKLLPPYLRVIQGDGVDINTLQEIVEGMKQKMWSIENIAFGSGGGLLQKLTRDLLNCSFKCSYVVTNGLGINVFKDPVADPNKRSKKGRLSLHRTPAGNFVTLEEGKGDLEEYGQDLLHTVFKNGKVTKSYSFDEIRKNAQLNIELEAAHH
Chain of Histone deacetylase 1 (Q13547 whole entry, the tested form may be a part): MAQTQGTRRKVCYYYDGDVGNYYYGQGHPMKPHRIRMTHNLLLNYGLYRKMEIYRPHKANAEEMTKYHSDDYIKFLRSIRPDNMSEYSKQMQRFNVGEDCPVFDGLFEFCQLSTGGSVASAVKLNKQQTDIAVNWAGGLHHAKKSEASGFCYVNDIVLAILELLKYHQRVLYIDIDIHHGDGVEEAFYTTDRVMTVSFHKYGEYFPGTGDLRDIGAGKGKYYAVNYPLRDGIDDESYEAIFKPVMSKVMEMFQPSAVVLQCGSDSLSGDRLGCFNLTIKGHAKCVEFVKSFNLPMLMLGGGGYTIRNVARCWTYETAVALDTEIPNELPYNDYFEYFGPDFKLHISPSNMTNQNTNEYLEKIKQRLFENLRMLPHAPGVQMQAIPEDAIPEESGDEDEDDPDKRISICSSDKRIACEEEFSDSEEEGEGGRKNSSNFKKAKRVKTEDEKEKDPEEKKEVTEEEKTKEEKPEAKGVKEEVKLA
Chain of Histone deacetylase 2 (Q92769 whole entry): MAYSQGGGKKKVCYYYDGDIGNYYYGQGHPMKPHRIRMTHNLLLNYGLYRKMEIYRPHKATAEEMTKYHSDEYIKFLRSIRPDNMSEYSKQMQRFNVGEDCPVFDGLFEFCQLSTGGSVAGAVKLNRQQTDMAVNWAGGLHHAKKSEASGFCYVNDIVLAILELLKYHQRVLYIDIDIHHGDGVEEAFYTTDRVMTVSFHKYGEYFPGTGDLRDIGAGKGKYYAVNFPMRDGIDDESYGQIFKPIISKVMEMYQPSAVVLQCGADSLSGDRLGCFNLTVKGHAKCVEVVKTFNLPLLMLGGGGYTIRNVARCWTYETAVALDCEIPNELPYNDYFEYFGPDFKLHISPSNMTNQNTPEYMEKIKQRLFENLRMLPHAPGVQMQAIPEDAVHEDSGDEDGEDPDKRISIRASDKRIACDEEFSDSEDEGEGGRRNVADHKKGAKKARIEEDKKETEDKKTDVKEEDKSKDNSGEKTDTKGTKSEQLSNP

SMILES: CCCNNC(=O)c1ccc(CNC(=O)c2cc3ccccc3[nH]2)cc1
GI50 (MV4-11): 37.3 nM
GI50 (HL-60 [1]): 69.6 nM
CC50 (Kasumi 1): 284 nM
CC50 [2]: > 100000 nM
CC50 [3]: > 100000 nM
CC50 (NB-4): > 100000 nM

SMILES: O=C(/C=C/c1cccnc1)NCCCCC1CCN(C(=O)c2ccccc2)CC1 [DAPORINAD]
IC50 (Histone deacetylase 1): > 10000 nM
IC50 (Histone deacetylase 2): > 10000 nM
IC50 [4]: > 10000 nM
IC50 (MV4-11): 15.3 nM
GI50 (HL-60 [1]): 12.1 nM

SMILES: CCCNNC(=O)c1ccc(CNC(=O)/C=C/c2ccncc2)cc1
IC50 [5]: > 20000 nM
IC50 (MV4-11): 67.7 nM

SMILES: CCCNNC(=O)c1ccc(CNC(=O)CCCCCCCNC(=O)/C=C/c2cccnc2)cc1
IC50 [5]: 489 nM
IC50 (MV4-11): 2190 nM

SMILES: CCCNNC(=O)c1ccc(CNC(=O)/C=C/c2ccccc2)cc1
GI50 (MV4-11): 16 nM
GI50 (HL-60 [1]): 121 nM
CC50 (Kasumi 1): > 100000 nM
CC50 [2]: > 100000 nM
CC50 [3]: > 100000 nM
CC50 (NB-4): > 100000 nM
CC50 (HL-60 [6]): 614 nM
CC50 (HL-60 [7]): 67.8 nM

SMILES: CCCNNC(=O)c1ccc(CNC(=O)c2cc3ccccc3o2)cc1
IC50 [4]: 0.43 nM

SMILES: CCCNNC(=O)c1ccc(CNC(=O)c2cc3cnccc3o2)cc1
IC50 (Histone deacetylase 1): 5.5 nM
IC50 (Histone deacetylase 2): 19.4 nM
IC50 [4]: 1.82 nM

SMILES: CCCNNC(=O)CCNC(=O)/C=C/c1cccnc1
IC50 (Histone deacetylase 2): > 10000 nM
IC50 [5]: > 20000 nM
IC50 (MV4-11): > 50000 nM

SMILES: CCCNNC(=O)c1ccc(CNC(=O)c2cc3cnccc3s2)cc1
IC50 [4]: 2.01 nM

SMILES: Cc1ncsc1C(=O)N1CCC(CCCCNC(=O)c2cc3cnccc3[nH]2)CC1
IC50 [8]: 5 nM

SMILES: COC(=O)c1ccc(CNC(=O)c2cc3cnccc3[nH]2)cc1
IC50 (Histone deacetylase 1): > 20000 nM
IC50 (Histone deacetylase 2): > 20000 nM
IC50 [4]: > 20000 nM
IC50 [5]: 6870 nM
IC50 (MV4-11): > 50000 nM

SMILES: CCCNNC(=O)c1ccc(CNC(=O)/C=C/c2ccccn2)cc1
IC50 [5]: > 20000 nM
IC50 (MV4-11): 85.2 nM

Further lines, results first:

IC50 (MV4-11): 87.7 nM
SMILES: CCCNNC(=O)CCCCCCNC(=O)c1cc2cnccc2[nH]1

IC50 [5]: 261 nM
IC50 (MV4-11): 434 nM
SMILES: CCCNNC(=O)CCCCCCNC(=O)/C=C/c1cccnc1

IC50 [5]: > 20000 nM
IC50 (MV4-11): 667 nM
SMILES: CCCNNC(=O)CCCCCCCNC(=O)/C=C/c1cccnc1

IC50 [5]: 261 nM
IC50 (MV4-11): 2240 nM
SMILES: CCCNNC(=O)c1ccc(CNC(=O)CCCCCCNC(=O)/C=C/c2cccnc2)cc1

IC50 [5]: > 20000 nM
IC50 (MV4-11): 901 nM
SMILES: CCCNNC(=O)CCCCNC(=O)/C=C/c1cccnc1

IC50 [5]: > 20000 nM
IC50 (MV4-11): 174 nM
SMILES: CCCNNC(=O)c1ccc(NC(=O)CCCCCCCNC(=O)/C=C/c2cccnc2)cc1

IC50 [5]: > 20000 nM
IC50 (MV4-11): 52.4 nM
SMILES: CCCNNC(=O)c1ccc(NC(=O)CCCCCCNC(=O)/C=C/c2cccnc2)cc1

IC50 [5]: > 20000 nM
SMILES: O=C(CCCCCCC(=O)Nc1ccccc1)NO [VORINOSTAT]
